Test results taken from patent publication US10806142B2, “2-amino-5-ketoxime-pyrimidine derivatives and their use for controlling undesired plant growth” (Bayer CropScience Aktiengesellschaft, priority 2015, dated 2020).
Values belong to the molecule of their own block, whether it stands above or below them.

Legend:
[1] = logp (HCOOH), physicochemical characterization; settings: HCOOH (formic acid)
Abutilon theophrasti [2] = assay: Pre-emergence herbicidal effect; format: in vivo; settings: dosage 320 g a.i./ha
From the text: (§1) 1. Pre-Emergence Herbicidal Effect and Crop Plant Compatibility Seeds of monocotyledonous and dicotyledonous weed plants and crop plants are laid out in wood-fiber pots in sandy loam and covered with soil. The compounds of the invention, formulated in the form of wettable powders (WP) or as emulsion concentrates (EC), are then applied to the surface of the covering soil as aqueous suspension or emulsion at a water application rate equating to 600 to 800 L/ha with addition of 0.2% wetting agent. After the treatment, the pots are placed in a greenhouse and kept under good growth conditions for the trial plants. The damage to the trial plants is scored visually after a trial duration of 3 weeks by comparison with untreated controls (herbicidal activity in percent (%): 100% efficacy=the plants have died, 0% efficacy=like control plants). [table]

Alopecurus myosuroides = assay: Pre-emergence herbicidal effect; format: in vivo
From the text: as §1

Amaranthus retroflexus [3] = assay: Pre-emergence herbicidal effect; format: in vivo
From the text: as §1

Avena fatua = assay: Pre-emergence herbicidal effect; format: in vivo; settings: dosage 320 g a.i./ha
From the text: as §1

Echinochloa crus-galli = assay: Pre-emergence herbicidal effect; format: in vivo
From the text: as §1

Matricaria inodora [4] = assay: Pre-emergence herbicidal effect; format: in vivo
From the text: as §1

Polygpnum convolvulus [5] = assay: Pre-emergence herbicidal effect; format: in vivo
From the text: as §1

Setaria viridis [6] = assay: Pre-emergence herbicidal effect; format: in vivo
From the text: as §1

Stellaria media [7] = assay: Pre-emergence herbicidal effect; format: in vivo
From the text: as §1

Veronica persica = assay: Pre-emergence herbicidal effect; format: in vivo
From the text: as §1

Viola tricolor [8] = assay: Pre-emergence herbicidal effect; format: in vivo
From the text: as §1

Amaranthus retroflexus [9] = assay: Post-emergence herbicidal effect; format: in vivo; settings: visual score after about 3 weeks
Method: (§2) [table] 2. Post-Emergence Herbicidal Effect and Crop Plant Compatibility Seeds of monocotyledonous and dicotyledonous weed and crop plants are laid out in sandy loam in wood-fiber pots, covered with soil and cultivated in a greenhouse under good growth conditions. 2 to 3 weeks after sowing, the test plants are treated at the one-leaf stage. The compounds of the invention, formulated in the form of wettable powders (WP) or as emulsion concentrates (EC), are then sprayed onto the green parts of the plants as aqueous suspension or emulsion at a water application rate equating to 600 to 800 L/ha with addition of 0.2% wetting agent. After the trial plants have been left to stand in a greenhouse under optimal growth conditions for about 3 weeks, the efficacy of the formulations is scored visually in comparison to untreated controls (herbicidal action in percent (%): 100% efficacy=the plants have died, 0% efficacy=like control plants).

Ipomoea purpurea = assay: Post-emergence herbicidal effect; format: in vivo; settings: visual score after about 3 weeks
Method: as §2

Setaria viridis [10] = assay: Post-emergence herbicidal effect; format: in vivo; settings: visual score after about 3 weeks
Method: as §2

Viola tricolor [11] = assay: Post-emergence herbicidal effect; format: in vivo; settings: visual score after about 3 weeks
Method: as §2

Abutilon theophrasti [12] = assay: Post-emergence herbicidal effect; format: in vivo; settings: visual score after about 3 weeks
Method: as §2

Cyperus esculentus = assay: Post-emergence herbicidal effect; format: in vivo; settings: dosage 320 g a.i./ha, visual score after about 3 weeks
Method: as §2

Lolium multiflorum = assay: Post-emergence herbicidal effect; format: in vivo; settings: dosage 320 g a.i./ha, visual score after about 3 weeks
Method: as §2

Matricaria inodora [13] = assay: Post-emergence herbicidal effect; format: in vivo; settings: dosage 320 g a.i./ha, visual score after about 3 weeks
Method: as §2

Polygpnum convolvulus [14] = assay: Post-emergence herbicidal effect; format: in vivo; settings: visual score after about 3 weeks
Method: as §2

Stellaria media [15] = assay: Post-emergence herbicidal effect; format: in vivo; settings: visual score after about 3 weeks
Method: as §2

chromatographic logP [1]: 3.71
SMILES: CC/C(=N\O)c1cnc(N[C@H]2c3cc(C)ccc3C[C@@H]2C)nc1CC [Compound 1.40a, N-[(1R,2S)-2,6-Dimethyl-2,3-dihydro-1H-inden-1-yl]-4-ethyl-5-[(1E)-N-hydroxypropanimidoyl]pyrimidine-2-amine]
Herbicidal activity against ABUTH (Abutilon theophrasti [2]): 100% | Herbicidal activity against ALOMY (Alopecurus myosuroides; dosage 80 g a.i./ha): 90% | Herbicidal activity against ALOMY (Alopecurus myosuroides; dosage 320 g a.i./ha): 100% | Herbicidal activity against AMARE (Amaranthus retroflexus [3]; dosage 80 g a.i./ha): 100% | Herbicidal activity against AMARE (Amaranthus retroflexus [3]; dosage 320 g a.i./ha): 100% | Herbicidal activity against AVEFA (Avena fatua): 100% | Herbicidal activity against ECHCG (Echinochloa crus-galli; dosage 80 g a.i./ha): 90% | Herbicidal activity against ECHCG (Echinochloa crus-galli; dosage 320 g a.i./ha): 100% | Herbicidal activity against MATIN (Matricaria inodora [4]; dosage 80 g a.i./ha): 90% | Herbicidal activity against MATIN (Matricaria inodora [4]; dosage 320 g a.i./ha): 100% | Herbicidal activity against POLCO (Polygpnum convolvulus [5]; dosage 80 g a.i./ha): 100% | Herbicidal activity against POLCO (Polygpnum convolvulus [5]; dosage 320 g a.i./ha): 100% | Herbicidal activity against SETVI (Setaria viridis [6]; dosage 80 g a.i./ha): 100% | Herbicidal activity against SETVI (Setaria viridis [6]; dosage 320 g a.i./ha): 100% | Herbicidal activity against STEME (Stellaria media [7]; dosage 80 g a.i./ha): 100% | Herbicidal activity against STEME (Stellaria media [7]; dosage 320 g a.i./ha): 100% | Herbicidal activity against VERPE (Veronica persica; dosage 80 g a.i./ha): 100% | Herbicidal activity against VERPE (Veronica persica; dosage 320 g a.i./ha): 100% | Herbicidal activity against VIOTR (Viola tricolor [8]; dosage 80 g a.i./ha): 100% | Herbicidal activity against VIOTR (Viola tricolor [8]; dosage 320 g a.i./ha): 100% | Herbicidal activity against AMARE (Amaranthus retroflexus [9]; dosage 80 g a.i./ha): 90% | Herbicidal activity against AMARE (Amaranthus retroflexus [9]; dosage 320 g a.i./ha): 90% | Herbicidal activity against PHBPU (Ipomoea purpurea; dosage 80 g a.i./ha): 80% | Herbicidal activity against PHBPU (Ipomoea purpurea; dosage 320 g a.i./ha): 100% | Herbicidal activity against SETVI (Setaria viridis [10]; dosage 80 g a.i./ha): 100% | Herbicidal activity against SETVI (Setaria viridis [10]; dosage 320 g a.i./ha): 100% | Herbicidal activity against VIOTR (Viola tricolor [11]; dosage 80 g a.i./ha): 90% | Herbicidal activity against VIOTR (Viola tricolor [11]; dosage 320 g a.i./ha): 90%

chromatographic logP [1]: 5.56
SMILES: C/C(=N/Oc1ccc(F)cc1)c1cnc(N[C@H]2c3cc(C)ccc3C[C@@H]2C)nc1 [Compound 1.101b, N-[(1R,2S)-2,6-dimethyl-2,3-dihydro-1H-inden-1-yl]-5-[(1Z)-N-(4-fluorophenoxy)ethanimidoyl]pyrimidine-2-amine]
Herbicidal activity against AMARE (Amaranthus retroflexus [3]; dosage 80 g a.i./ha): 90% | Herbicidal activity against AMARE (Amaranthus retroflexus [3]; dosage 320 g a.i./ha): 100% | Herbicidal activity against ECHCG (Echinochloa crus-galli; dosage 320 g a.i./ha): 90% | Herbicidal activity against MATIN (Matricaria inodora [4]; dosage 80 g a.i./ha): 80% | Herbicidal activity against MATIN (Matricaria inodora [4]; dosage 320 g a.i./ha): 100% | Herbicidal activity against POLCO (Polygpnum convolvulus [5]; dosage 320 g a.i./ha): 100% | Herbicidal activity against SETVI (Setaria viridis [6]; dosage 320 g a.i./ha): 100% | Herbicidal activity against STEME (Stellaria media [7]; dosage 80 g a.i./ha): 100% | Herbicidal activity against STEME (Stellaria media [7]; dosage 320 g a.i./ha): 100% | Herbicidal activity against VERPE (Veronica persica; dosage 80 g a.i./ha): 100% | Herbicidal activity against VERPE (Veronica persica; dosage 320 g a.i./ha): 100% | Herbicidal activity against VIOTR (Viola tricolor [8]; dosage 80 g a.i./ha): 90% | Herbicidal activity against VIOTR (Viola tricolor [8]; dosage 320 g a.i./ha): 100% | Herbicidal activity against ABUTH (Abutilon theophrasti [12]; dosage 80 g a.i./ha): 80% | Herbicidal activity against ABUTH (Abutilon theophrasti [12]; dosage 320 g a.i./ha): 100% | Herbicidal activity against AMARE (Amaranthus retroflexus [9]; dosage 320 g a.i./ha): 90% | Herbicidal activity against CYPES (Cyperus esculentus): 100% | Herbicidal activity against PHBPU (Ipomoea purpurea; dosage 320 g a.i./ha): 100% | Herbicidal activity against LOLMU (Lolium multiflorum): 100% | Herbicidal activity against MATIN (Matricaria inodora [13]): 100% | Herbicidal activity against POLCO (Polygpnum convolvulus [14]; dosage 80 g a.i./ha): 80% | Herbicidal activity against POLCO (Polygpnum convolvulus [14]; dosage 320 g a.i./ha): 100% | Herbicidal activity against STEME (Stellaria media [15]; dosage 80 g a.i./ha): 80% | Herbicidal activity against STEME (Stellaria media [15]; dosage 320 g a.i./ha): 90% | Herbicidal activity against VIOTR (Viola tricolor [11]; dosage 80 g a.i./ha): 90% | Herbicidal activity against VIOTR (Viola tricolor [11]; dosage 320 g a.i./ha): 90%
